This note sets out measurements from ChEMBL document CHEMBL4842364 (J Med Chem, 2021).

The structures appear in SMILES notation. In brackets after ≈: the same amount, converted by molar mass.

Series [1] is described as follows: Oral bioavailability in Beagle dog at 10 mg/kg measured upto 24 hrs by LC-MS/MS analysis. The format is ADME, organism-based, Canis lupus familiaris. The following applies: in vivo.
Series [2] is described as follows: AUC in Beagle dog at 10 mg/kg, po measured upto 24 hrs by LC-MS/MS analysis. The format is ADME, organism-based, Canis lupus familiaris. Details: route oral, dose 10 mg/kg, time <=24. The note with it: in vivo.
The subject of series [3] is NCI-H23. Kind of series: Antiproliferative activity against human NCI-H23 cells assessed as reduction in cell viability after 4 days by CellTiter-Glo assay. The following applies: Homo sapiens, NCI-H23, 96 h. On the technique in general: ATP-based viability assays read luminescence as a measure of living cells.
Series [4] addresses T1, Mitogen-activated protein kinase kinase kinase 3 (Homo sapiens) (UniProt Q99759).
T1 sequence (whole entry): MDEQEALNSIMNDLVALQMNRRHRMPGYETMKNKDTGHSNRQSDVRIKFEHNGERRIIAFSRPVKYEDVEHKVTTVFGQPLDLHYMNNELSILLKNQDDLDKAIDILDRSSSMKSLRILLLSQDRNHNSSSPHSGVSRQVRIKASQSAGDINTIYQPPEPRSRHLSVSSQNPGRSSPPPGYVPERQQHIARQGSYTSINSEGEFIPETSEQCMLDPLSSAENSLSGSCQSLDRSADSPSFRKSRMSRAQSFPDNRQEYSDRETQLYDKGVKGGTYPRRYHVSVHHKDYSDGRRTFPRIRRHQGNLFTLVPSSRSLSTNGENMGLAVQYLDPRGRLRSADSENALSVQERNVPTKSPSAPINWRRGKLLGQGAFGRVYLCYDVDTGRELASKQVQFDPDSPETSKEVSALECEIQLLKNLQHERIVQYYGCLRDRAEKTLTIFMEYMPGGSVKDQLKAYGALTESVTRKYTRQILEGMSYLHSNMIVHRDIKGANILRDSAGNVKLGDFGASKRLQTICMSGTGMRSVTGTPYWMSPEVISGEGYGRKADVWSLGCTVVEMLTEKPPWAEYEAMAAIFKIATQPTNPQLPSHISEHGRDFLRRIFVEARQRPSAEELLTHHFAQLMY
Kind of series: Inhibition of MAP3K3 (unknown origin) at 1 uM relative to control.

Series [5] deals with Voltage-gated inwardly rectifying potassium channel KCNH2 (Homo sapiens, UniProt Q12809). Description: Inhibition of human ERG.
Sequence of Voltage-gated inwardly rectifying potassium channel KCNH2 (Q12809 whole entry): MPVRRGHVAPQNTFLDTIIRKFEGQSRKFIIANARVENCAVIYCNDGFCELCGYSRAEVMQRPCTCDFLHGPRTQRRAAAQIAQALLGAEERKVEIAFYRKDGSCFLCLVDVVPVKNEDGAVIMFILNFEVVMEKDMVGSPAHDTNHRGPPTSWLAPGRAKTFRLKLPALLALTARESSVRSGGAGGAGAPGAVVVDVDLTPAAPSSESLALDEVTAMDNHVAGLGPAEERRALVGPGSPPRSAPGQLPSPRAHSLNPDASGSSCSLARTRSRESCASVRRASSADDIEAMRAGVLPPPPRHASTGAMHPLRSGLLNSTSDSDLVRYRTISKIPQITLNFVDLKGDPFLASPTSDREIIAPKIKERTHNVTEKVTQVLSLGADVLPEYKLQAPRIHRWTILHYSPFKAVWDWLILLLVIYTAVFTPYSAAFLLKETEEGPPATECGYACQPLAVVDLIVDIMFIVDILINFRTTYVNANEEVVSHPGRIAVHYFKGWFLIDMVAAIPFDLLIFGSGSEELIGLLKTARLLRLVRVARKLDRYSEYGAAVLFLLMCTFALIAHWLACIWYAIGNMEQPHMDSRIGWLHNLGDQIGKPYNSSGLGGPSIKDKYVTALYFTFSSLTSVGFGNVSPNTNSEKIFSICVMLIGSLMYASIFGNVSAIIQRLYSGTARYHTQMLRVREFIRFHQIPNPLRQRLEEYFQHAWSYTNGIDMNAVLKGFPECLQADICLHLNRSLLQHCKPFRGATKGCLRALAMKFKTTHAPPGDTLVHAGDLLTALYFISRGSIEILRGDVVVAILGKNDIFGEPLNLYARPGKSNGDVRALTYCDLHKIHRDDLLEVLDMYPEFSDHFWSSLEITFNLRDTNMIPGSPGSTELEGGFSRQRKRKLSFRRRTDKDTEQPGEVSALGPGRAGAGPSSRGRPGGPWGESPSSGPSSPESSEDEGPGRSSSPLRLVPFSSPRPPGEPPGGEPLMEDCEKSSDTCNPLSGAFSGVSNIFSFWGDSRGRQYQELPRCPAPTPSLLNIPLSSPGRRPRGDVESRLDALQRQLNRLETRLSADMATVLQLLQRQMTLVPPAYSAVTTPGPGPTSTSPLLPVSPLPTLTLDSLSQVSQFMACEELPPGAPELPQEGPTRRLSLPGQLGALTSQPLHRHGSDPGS
The target of series [6] is Cytochrome P450 3A4 (Homo sapiens, UniProt P08684). Description: Inhibition of CYP3A4 (unknown origin). It counts as ADME.
Sequence of Cytochrome P450 3A4 (P08684 whole entry): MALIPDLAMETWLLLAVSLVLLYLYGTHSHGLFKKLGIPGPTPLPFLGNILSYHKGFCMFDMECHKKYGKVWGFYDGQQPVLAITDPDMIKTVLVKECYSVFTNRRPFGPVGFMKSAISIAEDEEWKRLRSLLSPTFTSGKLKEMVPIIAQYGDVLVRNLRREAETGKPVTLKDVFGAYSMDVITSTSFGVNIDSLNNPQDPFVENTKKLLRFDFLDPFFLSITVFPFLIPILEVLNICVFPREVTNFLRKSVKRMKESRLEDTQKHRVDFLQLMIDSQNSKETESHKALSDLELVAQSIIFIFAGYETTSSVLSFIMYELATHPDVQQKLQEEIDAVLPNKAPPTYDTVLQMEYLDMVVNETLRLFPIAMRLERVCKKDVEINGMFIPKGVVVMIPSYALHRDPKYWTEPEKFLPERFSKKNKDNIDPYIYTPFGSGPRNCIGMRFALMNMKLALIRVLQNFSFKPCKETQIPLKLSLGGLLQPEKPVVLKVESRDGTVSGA
Series [7] addresses T2, Mitogen-activated protein kinase kinase kinase 19 (Homo sapiens) (UniProt Q56UN5).
T2 sequence (whole entry): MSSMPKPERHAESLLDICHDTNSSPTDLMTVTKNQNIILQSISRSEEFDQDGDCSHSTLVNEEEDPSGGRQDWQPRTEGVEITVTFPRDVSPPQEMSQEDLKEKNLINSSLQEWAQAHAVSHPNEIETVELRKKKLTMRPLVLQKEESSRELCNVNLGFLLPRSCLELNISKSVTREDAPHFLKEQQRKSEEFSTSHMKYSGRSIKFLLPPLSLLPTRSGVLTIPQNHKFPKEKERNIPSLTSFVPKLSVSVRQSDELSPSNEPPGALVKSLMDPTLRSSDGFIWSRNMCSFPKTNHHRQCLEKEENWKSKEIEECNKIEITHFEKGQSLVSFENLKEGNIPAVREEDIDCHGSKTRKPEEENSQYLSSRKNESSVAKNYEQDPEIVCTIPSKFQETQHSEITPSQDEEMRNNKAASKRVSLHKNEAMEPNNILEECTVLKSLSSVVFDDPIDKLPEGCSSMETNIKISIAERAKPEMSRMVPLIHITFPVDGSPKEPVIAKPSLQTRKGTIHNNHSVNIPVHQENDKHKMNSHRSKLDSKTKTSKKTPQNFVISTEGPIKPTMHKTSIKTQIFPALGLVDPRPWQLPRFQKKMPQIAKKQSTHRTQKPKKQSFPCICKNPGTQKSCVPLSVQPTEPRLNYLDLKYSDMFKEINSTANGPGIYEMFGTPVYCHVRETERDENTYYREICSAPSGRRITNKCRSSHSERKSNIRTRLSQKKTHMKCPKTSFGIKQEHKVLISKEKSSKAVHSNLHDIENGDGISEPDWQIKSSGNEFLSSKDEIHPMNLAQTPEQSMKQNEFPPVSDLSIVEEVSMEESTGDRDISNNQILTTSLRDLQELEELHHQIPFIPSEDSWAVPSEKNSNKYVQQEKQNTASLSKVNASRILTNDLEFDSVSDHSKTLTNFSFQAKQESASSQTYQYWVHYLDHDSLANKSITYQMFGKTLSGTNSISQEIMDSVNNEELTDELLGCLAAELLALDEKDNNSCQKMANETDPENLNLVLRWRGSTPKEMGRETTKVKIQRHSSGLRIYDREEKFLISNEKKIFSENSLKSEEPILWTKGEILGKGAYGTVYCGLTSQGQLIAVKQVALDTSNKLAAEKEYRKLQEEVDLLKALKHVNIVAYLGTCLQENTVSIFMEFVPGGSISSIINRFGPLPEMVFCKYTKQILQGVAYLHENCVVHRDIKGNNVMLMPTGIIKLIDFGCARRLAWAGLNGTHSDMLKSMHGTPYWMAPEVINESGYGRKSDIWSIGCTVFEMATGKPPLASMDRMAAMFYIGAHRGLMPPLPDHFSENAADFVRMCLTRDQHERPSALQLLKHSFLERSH
Description: Inhibition of YSK4 (unknown origin) at 1 uM relative to control.

Series [8] concerns the target T3, Serine/threonine-protein kinase PLK3 (Homo sapiens, UniProt Q9H4B4). Description: Inhibition of PLK3 (unknown origin).
Target sequence in this assay (Q9H4B4 whole entry): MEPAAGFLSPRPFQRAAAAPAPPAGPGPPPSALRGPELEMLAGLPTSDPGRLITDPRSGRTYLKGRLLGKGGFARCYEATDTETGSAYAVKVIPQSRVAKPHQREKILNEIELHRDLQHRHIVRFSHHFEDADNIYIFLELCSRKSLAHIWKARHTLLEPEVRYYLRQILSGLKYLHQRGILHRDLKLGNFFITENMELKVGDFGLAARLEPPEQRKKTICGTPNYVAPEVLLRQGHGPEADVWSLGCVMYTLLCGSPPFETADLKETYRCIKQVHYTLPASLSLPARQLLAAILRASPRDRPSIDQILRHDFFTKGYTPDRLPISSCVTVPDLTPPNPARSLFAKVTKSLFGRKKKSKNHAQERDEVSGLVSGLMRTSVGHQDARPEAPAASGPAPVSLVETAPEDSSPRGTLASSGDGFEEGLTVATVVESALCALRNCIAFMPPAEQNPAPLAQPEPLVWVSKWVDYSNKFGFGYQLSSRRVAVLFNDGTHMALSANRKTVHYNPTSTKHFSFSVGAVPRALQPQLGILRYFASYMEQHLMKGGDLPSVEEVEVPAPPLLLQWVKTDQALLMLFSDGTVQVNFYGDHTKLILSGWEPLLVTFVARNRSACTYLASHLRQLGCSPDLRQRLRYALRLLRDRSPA
Series [9] is described as follows: Intrinsic clearance in human microsomes. It counts as ADME, Microsome.
Series [10] in a line: Half life in Beagle dog at 3 mg/kg, iv measured upto 24 hrs by LC-MS/MS analysis. It counts as ADME, organism-based, Canis lupus familiaris. The following applies: in vivo.
In series [11] the target is T4, Mitogen-activated protein kinase kinase kinase 19 (Homo sapiens, UniProt Q56UN5).
T4 sequence (Q56UN5 whole entry): T2 sequence (whole entry)
Description: Inhibition of YSK4 (unknown origin).

Series [12] is described as follows: Thermodynamic solubility of compound. The following applies: read-out: Therm_solubility. It counts as physicochemical.
The nature of series [13]: AUC in Beagle dog at 3 mg/kg, iv measured upto 24 hrs by LC-MS/MS analysis. The format is ADME, organism-based, Canis lupus familiaris. Details: route intravenous, dose 3 mg/kg, time <=24. The following applies: in vivo.
In series [14] the target is T3, Serine/threonine-protein kinase PLK3. Kind of series: Inhibition of PLK3 (unknown origin) at 1 uM relative to control.
Target sequence in this assay (Q9H4B4 whole entry, looked up): as the sequence (Q9H4B4 whole entry) above
Series [15] in a line: AUC(0 to 24 hrs) in mouse at 60 mg/kg, po. The note with it: in vivo. The format is ADME, organism-based. Also on record: time < 24 hr, route oral, dose 60 mg/kg.
Series [16] can be described thus: Plasma protein binding in human. The format is ADME, cell-free. The note with it: read-out: PPB (converted).
In series [17] the target is Serine/threonine-protein kinase PLK1 (Homo sapiens, UniProt P53350). Description: Inhibition of PLK1 (unknown origin).
Sequence of Serine/threonine-protein kinase PLK1 (P53350 whole entry): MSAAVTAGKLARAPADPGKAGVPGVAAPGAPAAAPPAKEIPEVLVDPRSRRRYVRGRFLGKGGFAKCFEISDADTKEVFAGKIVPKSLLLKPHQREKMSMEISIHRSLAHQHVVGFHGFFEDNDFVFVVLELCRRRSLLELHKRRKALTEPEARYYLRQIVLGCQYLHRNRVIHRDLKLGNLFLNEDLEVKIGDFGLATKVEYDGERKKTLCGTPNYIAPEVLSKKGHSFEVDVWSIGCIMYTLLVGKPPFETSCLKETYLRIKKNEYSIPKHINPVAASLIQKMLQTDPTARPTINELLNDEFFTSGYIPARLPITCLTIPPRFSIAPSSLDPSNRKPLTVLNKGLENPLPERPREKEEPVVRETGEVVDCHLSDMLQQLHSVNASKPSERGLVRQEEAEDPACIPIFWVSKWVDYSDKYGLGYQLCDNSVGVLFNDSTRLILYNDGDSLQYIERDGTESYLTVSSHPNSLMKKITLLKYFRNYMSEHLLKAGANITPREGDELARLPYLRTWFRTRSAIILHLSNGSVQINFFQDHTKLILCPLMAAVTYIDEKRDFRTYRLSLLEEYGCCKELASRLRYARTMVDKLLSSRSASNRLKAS

In general, AUC refers to the area under the concentration-time curve, a measure of exposure. Broadly, the IC50 is the concentration needed to halve the response being measured. Broadly, the inhibition is the drop in the measured response relative to a control, in per cent. Lower therefore signals a response near the control. A word on the CLint scaled: it is the capacity of the preparation to metabolise the compound, expressed as a volume cleared per time. The term half-life denotes how long it takes for the measured level to halve. Low values mean fast loss, high ones slow loss. By AUC(0-t) is commonly meant exposure summed from dosing to a finite time, without extrapolation to infinity. A low value points to low exposure. Consider `C=CCn1c(=O)c2cnc(Nc3ccc(N4CCN(C)CC4)cc3)nc2n1-c1ccc2c(n1)C(O)(CC)CC2` (racemic), for which, in [1], the bioavailability came to 142%. Besides, the AUC at 24 h in series [2] was 9.7 µM·h; in series [13], 2.1 µM·h. Moreover, the IC50 in [3] was 103 nM; in series [5], more than 30000 nM; in [6], 7000 nM; in series [8], 70 nM; in series [11], 59 nM; in series [17], 227 nM. The values for the inhibition in series [4], in series [7] and in [14] were 75%, more than 90% and more than 90%, respectively. The compound also had an intrinsic clearance (CLint scaled) in series [9] of 40 mL/min/kg. This compound also showed a half-life in [10] of 1.4 h. The solubility thermodynamic in series [12] is 2130 µM (≈ 1120 µg/mL). Also, the AUC(0-t) at 24 h in [15] stood at 32 µM·h. In series [16], the fraction unbound was 0.34.
